One series has as its system RAW 264.7 cells. The series is described as follows: Transwell migration assay of monocytes/macrophages. The settings on record: laminin 421 1 μg/ml, 30 nM-3 μM, 24 hours, concentration-dependent. The class given is cell-based. As for the experimental part: Among several extracellular matrix (ECM), it was examined which ECM promotes the migration and infiltration of immune cells, typically monocytes/macrophages. A transwell migration assay was performed using collagen (Col), fibronectin (FN) and laminin (LN) as extracellular matrices, and detailed methods were as follows. Transwells (Corning, #3421-5 mm) were coated with gelatin (0.5 mg/ml) and RAW 264.7 cells (1×10^5 cells/well) were seeded into the top chambers. Serum free DMEM (500 μl) containing 10 μg/ml of laminin (laminin mixture, Biolamina), fibronectin or collagen, respectively, was placed in the bottom chambers. After 24 hours, cells were fixed with 70% methanol for 30 minutes and stained with 50% hematoxylin for 30 minutes. After removing non-migrating cells from the top of the membrane with a cotton swab, the membrane was taken and mounted on the slide. Migrating cells on the underside of the membrane were observed and quantified under a high magnification microscope.
Effect of laminin subtypes on the immune cell migration and infiltration was evaluated. A transwell migration assay was performed in the same manner as in Example 1 using LN111, LN211, LN221, LN411, LN421, LN511, and LN521 as various laminin subtype proteins (purchased from Biolamina). Specific sequences of laminin subtypes are referred to α4 chain of SEQ ID NO:4, α2 chain of SEQ ID NO: 10, α5 chain of SEQ ID NO: 11, β2 chain of SEQ ID NO:6, β1 chain of SEQ ID NO: 12, γ1 chain of SEQ ID NO: 8. according to the chain forming each laminin subtype,
For each of the transformed macrophages, a transwell migration assay was performed in the same manner as in Example 1 using 1 μg/ml of laminin 421.
Thus identified agents as inhibiting the translocation of KRS to the plasma membrane was added to the LN421-treated macrophages to perform a transwell migration assay. […] Migrating cells on the underside of the membrane were observed and quantified under a high magnification microscope. […]

The test system of series [1] is Dahl salt-sensitive (SS) rats. Nature of the series: Dahl salt-sensitive (SS) rat on high salt diet. Format: in vivo. As to the method: Experiments were performed using male Dahl SS rats at 9-12 weeks of age. These animals were provided by the University of Mississippi Medical Center and approved by the American Association for Accreditation of Laboratory Animal Care (AAALAC). All protocols were approved by the Institutional Animal Care and Use Committee of the University of Mississippi Medical Center. Rats were fed ad libitum, and these rats were provided with a purified AIN-76 rodent feed containing 0.4% NaCl (Dyets, Bethlehem, Pa.) after weaning. Dahl salt-sensitive (SS) rat is an animal model that rapidly develops high hypertension, proteinuria, glomerulosclerosis and renal interstitial fibrosis on high salt (HS) diet.
Dahl SS rats were anesthetized with isoflurane and telemetry transmitters (model TA11PAC40, Data Sciences International, St. Paul, Minn.) were aseptically implanted in the same manner as described above. After surgery, rats were housed in individual cages in a quiet air-conditioned room environment with a 12:12 hour light-dark cycle and it took a week to fully recover from surgery. Then, the baseline mean arterial blood pressure (MAP) was measured before the rats were placed in the metabolic cage to measure urine protein excretion. Proteinuria was measured using the Bradford method and BSA (Bio-Rad Laboratories, Hercules, Calif.) as a standard.
Rats were then randomly divided into two experimental groups: Group 1 (n=15) was treated with BC-KI-00053 (25 mg/kg daily) by gastrointestinal gavage; Group 2 (n=15) was administered by gastrointestinal gavage with the same volume (2.5 ml/kg per day) of vehicle (corn oil, polyethylene glycol 400, Tween 80 and methyl cellulose). Simultaneously with the administration of agents, feed was changed to HS feed containing 8% NaCl (Dyets, Bethlehem, Pa.) and blood pressure and proteinuria were measured at 7, 14 and 21 days after starting HS feed. At the end of the experiment, rats were anesthetized with isoflurane and blood samples were taken to measure creatinine levels. Rats were then flushed with 50 ml of 0.9% NaCl through the aorta and perfused with 20 ml of 4% paraformaldehyde. Kidneys and hearts were collected for histological evaluation.
Paraffin section preparation and evaluations of the degree of glomerular damage, cortex and medulla fibrosis were performed as described above. In addition, immunohistochemical staining (IHC) for CD68, a monocyte/macrophage marker for kidney tissue, was performed in the same manner as in Example 8.
Statistics: Each data is expressed as mean±SEM. Comparison between groups was analyzed by two-tailed test. P value p<0.05 was considered statistically significant.

The structures appear in SMILES notation. Entries after “also recorded” stand apart in the source; their conditions may differ.

Take `COc1ccc(CCN(Cc2ccc(C(=O)O)cc2)c2nc3cccc(F)c3s2)cc1` [BC-KI-00053, 4-({(7-fluorobenzo[d]thiazol-2-yl)[2-(4-methoxyphenyl)ethyl]amino}methyl)benzoic acid]: the LN421-specific monocyte/macrophage migration entry in the series with RAW 264.7 cells is on record as “noticeably suppressed; also recorded: significantly inhibited”. The cortical fibrosis in series [1] (25 mg/kg daily 3 weeks) stood at 6.47±0.46%. In addition, the renal medulla fibrosis in series [1] (25 mg/kg daily 3 weeks) stood at 12.33±0.78%. In addition, the “renal tissue infiltration of monocytes/macrophages (CD68 IHC)” value in series [1] (25 mg/kg daily 3 weeks) is recorded as “significantly reduced”. The cardiac fibrosis in series [1] (25 mg/kg daily 3 weeks, Sirius red) came out at 6.63±0.94%. Also, the “mean glomerular injury score” value in series [1] (25 mg/kg daily 3 weeks, score 0 to 4+) was found to be 1.34±0.04. The “body weight during the study period” value in series [1] (25 mg/kg daily gavage, 3 weeks) was “maintained or increased slightly”. For the same compound, the MAP in series [1] (25 mg/kg daily, after 2 weeks of treatment, HS diet) worked out at 164.43±3.00 mmHg; in series [1] (25 mg/kg daily, study completed (21 days), HS diet), 178.48±3.49 mmHg; in series [1] (baseline, before treatment), 123.45±2.36 mmHg. Moreover, the proteinuria stood at 302.86 ± 29.76 mg/day in series [1] (25 mg/kg daily, after one week of treatment, HS diet); 510.64 ± 42.42 mg/day in series [1] (25 mg/kg daily, after two weeks of treatment, HS diet); 524.55 ± 44.70 mg/day in series [1] (25 mg/kg daily, end of study, HS diet); 113.27 ± 8.06 mg/day in series [1] (baseline, before treatment). The plasma creatinine concentration in series [1] (25 mg/kg daily, end of experiment) came to 0.55 ± 0.01 mg/dL. The baseline body weight in series [1] (baseline, before treatment, mean±SEM) turned out to be 350.13 ± 9.173 g.
